{"source": "patent EP4104817A1", "about": "“OPHTHALMIC COMPOSITION COMPRISING ASTRAGALOSIDE IV” (Skeye Pharma GbR, priority 2021, dated 2022)", "key": {"[1]": {"test_system": "Human corneal epithelial cells (hCEC)", "assay": "WST-1 cell viability assay, 72 hours of treatment", "assay_type": "cell-based", "settings": "DMSO-treated control 100 ± 9%, mean ± standard deviation", "experimental": "(§1) Human corneal epithelial cells (hCEC; SCCE016; Merck Millipore, Burlington, MA, USA) were cultured in corneal epithelial cell growth medium with supplement mix (LGC Standards, Teddington, United Kingdom). Approximately 10,000 hCECs were seeded onto each well of a 96-well cell-culture dishes (NUNC, Langenselbold, Germany). Confluent cells were used for Water-soluble tetrazolium salt (WST-1) cell proliferation assays (Hoffmann-La Roche AG, Basel, Switzerland). After 24 hours of incubation with 100 µl of corneal epithelial cell growth medium without its' supplement mix (LGC Standards, Teddington, United Kingdom), hCECs were treated with different concentrations of astragaloside IV (AIV; Selleckchem, Houston, TX, USA) dissolved in dimethyl sulfoxide (DMSO; Carl Roth AG, Karlsruhe, Germany). Control groups were treated with DMSO only. Following another 72 hours of incubation, the cells were incubated with the WST-1 solution for 30 minutes. Substrate turnover was measured with an ELISA reader at 450 nm (Spectramax 190; Molecular Devices, Sunnyvale, CA, USA) and a reference at 690 nm."}, "hCEC [2]": {"test_system": "hCEC", "assay": "BrdU ELISA cell proliferation assay, 24 hours of treatment", "assay_type": "cell-based", "settings": "Homo sapiens, compared to DMSO-treated control, mean ± standard deviation", "experimental": "Proliferation of hCEC was determined using a 5-bromo-2'-deoxyuridine (BrdU) ELISA in accordance with the manufacturers' recommendations (Merck KGaA, Darmstadt, Germany). In brief, approximately 7,000 cells were seeded onto a 96-well cell culture plate and incubated for 24h to achieve complete adherence of the cells. After 24 hours of incubation with 100 µl of corneal epithelial cell growth medium without its' supplement mix, hCECs were treated with astragaloside IV dissolved in DMSO. Following another 24 hours of incubation with BrdU labeling solution, cells were fixed and incubated with anti-BrdU antibodies according to the manufacturer's recommendations. BrdU incorporation into the DNA of hCECs was quantified by absorbance measurement at 450 nm using the ELISA reader Spectramax 190 (Molecular Devices, Sunnyvale, CA, USA)."}, "hCEC [3]": {"test_system": "hCEC", "assay": "Cell scratch assay (migration / wound healing in vitro), follow-up up to 72 hours", "assay_type": "cell-based, Human", "settings": "1 µM, 2.5 µM; follow-up of 72 hours; versus DMSO-only control; p > 0.05 for all groups", "experimental": "To analyze hCEC migration in vitro, cells were cultured in corneal epithelial cell growth medium with supplement mix until confluence of the cells of a 6-well cell culture plate. Following an incubation period of 24 hours in cell culture medium without supplements, 5 linear scratches were performed in each well using a 200 µl pipette tip (Eppendorf AG, Hamburg, Germany). The hCECs were then incubated prospectively under treatment with astragaloside IV or DMSO as a control for up to 72 hours. Reference images were acquired at the beginning of the incubation period using the phase contrast mode on an Axio Observer 7 (Carl Zeiss AG, Jena, Germany). Every 24 hours, follow-up images of 4-5 different scratch sections were acquired. The size of the wound area was analyzed using a semi-automated analysis tool in ImageJ 1.53a (National Institute of Health, Bethesda, MD, USA)."}, "bovine corneas": {"test_system": "bovine corneas", "assay": "Corneal erosion assay ex vivo (epithelial wound healing), follow-up 72 hours", "settings": "1 µM or 2.5 µM, every 12 hours up to 72 hours, versus DMSO-treated control, p > 0.05 for all groups", "experimental": "Furthermore, corneal epithelial cell wound healing was determined on bovine corneas ex vivo. Bovine globes were obtained from a local butchery following approval by the authority for waste management of animal carcasses (ID: DE 09 162 0066-219) and processed within 12 hours post-mortem. The bovine globes were washed in 10% w/v povidone-iodine for 5 minutes. A circular corneal epithelial erosion was created using an 8 mm trephine and a hockey knife (Katena Products Inc., Parsippany, NJ, USA). Subsequently, a sclerocorneal ring was excised with eye scissors (Katena Products Inc., Parsippany, NJ, USA) and transferred to a 60 mm cell culture plate. To acquire reference images of the corneal erosion, the wound area was stained with a 0.8 mg/ml fluorescein sodium solution and illuminated with blue light (approximate wavelength 490 nm). Images were acquired using a distance-fixed digital single lens reflex camera equipped with a macro lens (Canon Inc., Tokyo, Japan). Consequently, the sclerocorneal rings were incubated in Dulbecco's Modified Eagle's Medium (Bio&SELL GmbH, Feucht, Germany) supplemented with 50 IU penicillin/ml and 50 µg streptomycin/ml (Merck Millipore, Burlington, MA, USA) and astragaloside IV or DMSO only. Follow-up images were acquired every 12 hours, the cell culture medium was renewed daily."}, "[4]": {"test_system": "human corneal epithelial cells", "assay": "WST-1 cell viability assay under oxidative stress (H2O2 100 µM, 24 hours)", "assay_type": "cell-based", "settings": "H2O2 group 79 ± 14%, untreated control 100 ± 3%", "experimental": "as §1\nTo determine potential anti-oxidative effects of astragaloside IV, hCECs were incubated and treated analogous to the above-mentioned WST-1 cell proliferation assay with minor modifications. […]"}, "[5]": {"test_system": "Intracellular, mitochondrial reactive oxygen species (ROS)", "assay": "Dihydrorhodamine-123 (DHR-123) fluorescence assay of ROS under oxidative stress (H2O2, 2 hours)", "assay_type": "cell-based", "settings": "Homo sapiens, HCEC, hCECs, percent of DMSO control, H2O2 group 149 ± 9%, p = 0.0006 vs H2O2", "experimental": "Intracellular, mitochondrial reactive oxygen species (ROS) were assessed using the cell membrane permeable dihydrorhodamine-123 (DHR-123) assay (D23806; ThermoFisher Scientific, Waltham, MA, USA) according to the manufacturer's instructions. Measurements were made after exposing human corneal epithelial cells to H2O2, astragaloside IV or DMSO for 2 hours. For ROS staining, cells were incubated with 10 µM DHR-123 for 15 minutes. Nucleus staining was performed using Hoechst 33342 nucleic acid stain (H1399; ThermoFisher Scientific, Waltham, MA, USA). Randomly, a minimum of 3 images of every treatment group were acquired with a 20x fluorescence objective using the aforementioned Axio Observer 7. Results were expressed in percent of fluorescence intensity relative to the baseline measurement in the DMSO control group. For quantification of the fluorescence signals, the microscope software ZEN 3.0 (Carl Zeiss AG, Jena, Germany) was used."}}}
{"molecule": "CC(C)(O)C1CCC(C)(C2C(O)CC3(C)C4CC(OC5OC(CO)C(O)C(O)C5O)C5C(C)(C)C(OC6OCC(O)C(O)C6O)CCC56CC46CCC23C)O1", "note": "[astragaloside IV, (2R,3R,4S,5S,6R)-2-(((2aR,3R,4R,5aS,7R,11aR)-4-hydroxy-3-((2R,5S)-5-(2-hydroxypropan-2-yl)-2-methyltetrahydrofuran-2-yl)-2a,5a,8,8-tetramethyl-9-(((2S,3R,4S,5R)-3,4,5-trihydroxytetrahydro-2H-pyran-2-yl)oxy)hexadecahydrocyclopenta[a]cyclopropa[e]phenanthren-7-yl)oxy)-6-(hydroxymethyl)tetrahydro-2H-pyran-3,4,5-triol]", "values": [{"measurement": "viability at 1 µM", "setting": "[1]; 1 µM, p < 0.0001", "value": "154 ± 33", "unit": "%"}, {"measurement": "viability at 2.5 µM", "setting": "[1]; 2.5 µM, p < 0.0001", "value": "149 ± 27", "unit": "%"}, {"measurement": "viability at 5 µM", "setting": "[1]; 5 µM, p = 0.0003", "value": "138 ± 22", "unit": "%"}, {"measurement": "viability at 10 µM", "setting": "[1]; 10 µM, non-significant decrease, p > 0.9999", "value": "89 ± 5", "unit": "%"}, {"measurement": "activity at 1 µM", "setting": "hCEC [2]; 1 µM, p = 0.0028, read-out: corneal epithelial cell proliferation", "value": "125 ± 26", "unit": "%"}, {"measurement": "activity at 2.5 µM", "setting": "hCEC [2]; 2.5 µM, p = 0.0017, read-out: corneal epithelial cell proliferation", "value": "126 ± 30", "unit": "%"}, {"measurement": "activity at 5 µM", "setting": "hCEC [2]; 5 µM, not significant, p > 0.9999, read-out: corneal epithelial cell proliferation", "value": "112 ± 14", "unit": "%"}, {"measurement": "corneal epithelial cell migration (scratched hCEC area over time)", "setting": "hCEC [3]", "value": "none of the treatment groups showed a significant decrease of corneal epithelial cell migration"}, {"measurement": "speed of re-epithelialization", "setting": "bovine corneas", "value": "did not show any significant difference in the speed of re-epithelialization"}, {"measurement": "viability at 1 µM", "setting": "[4]; 1 µM with H2O2 100 µM, p = 0.0044 vs H2O2", "value": "91 ± 4", "unit": "%"}, {"measurement": "viability at 2.5 µM", "setting": "[4]; 2.5 µM with H2O2 100 µM, p = 0.0002 vs H2O2", "value": "95 ± 6", "unit": "%"}, {"measurement": "activity at 1 µM", "setting": "[5]; 1 µM with H2O2 100 µM", "value": "94 ± 7", "unit": "%"}, {"measurement": "activity at 2.5 µM", "setting": "[5]; 2.5 µM with H2O2 100 µM", "value": "94 ± 15", "unit": "%"}]}
